Measurements taken from patent US7589104B2, “Tricyclic-bridged piperidinyline derivatives as §-opioid modulators” (Janssen Pharmaceutica NV, priority 2004, dated 2009).
Like-named read-outs stand apart in the source and are kept apart here.

Key:
[1] = target: T1, delta opioid receptor (Rattus norvegicus, UniProt P33533); assay: Rat Brain Delta Opioid Receptor Binding Assay
T1 construct: from tissue; host or cells: forebrain of male Wistar rats (Charles River)

[2] = target: T2, mu opioid receptor (Rattus norvegicus, UniProt P33535); assay: Rat Brain Mu Opioid Receptor Binding Assay
T2 construct: Following incubation with the mu selective peptide ligand, ˜0.8 nM [^3H]DAMGO; from tissue; host or cells: forebrain of male Wistar rats (Charles River)
T2 sequence (P33535 whole entry): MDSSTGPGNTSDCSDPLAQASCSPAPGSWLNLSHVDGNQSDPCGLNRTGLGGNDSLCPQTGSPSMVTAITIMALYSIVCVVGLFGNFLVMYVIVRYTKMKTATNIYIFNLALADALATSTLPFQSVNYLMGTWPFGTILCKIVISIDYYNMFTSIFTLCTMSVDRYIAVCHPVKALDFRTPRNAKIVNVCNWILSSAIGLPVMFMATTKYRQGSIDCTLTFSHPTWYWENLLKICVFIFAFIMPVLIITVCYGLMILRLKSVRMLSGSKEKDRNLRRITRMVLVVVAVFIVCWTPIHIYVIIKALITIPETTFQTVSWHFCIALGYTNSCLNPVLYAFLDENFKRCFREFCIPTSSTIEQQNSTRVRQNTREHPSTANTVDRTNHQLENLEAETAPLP

T1 sequence (P33533 whole entry): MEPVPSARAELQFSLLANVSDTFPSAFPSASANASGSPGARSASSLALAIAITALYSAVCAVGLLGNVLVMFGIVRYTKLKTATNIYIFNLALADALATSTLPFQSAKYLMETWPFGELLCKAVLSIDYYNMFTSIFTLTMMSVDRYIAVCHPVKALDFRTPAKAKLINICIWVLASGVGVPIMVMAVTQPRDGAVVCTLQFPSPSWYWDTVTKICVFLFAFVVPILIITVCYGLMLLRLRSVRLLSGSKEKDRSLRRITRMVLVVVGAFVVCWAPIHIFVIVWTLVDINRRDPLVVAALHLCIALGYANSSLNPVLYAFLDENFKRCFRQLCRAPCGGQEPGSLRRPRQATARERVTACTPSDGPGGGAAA

Compound | Ki [1] | Ki [2] | Ki ([2]; rat forebrain membranes, [3H]DAMGO, read-out: mu (Ki))
CCN(CC)C(=N)c1ccc2c(c1)Oc1ccccc1C2C1CC2CCC(C1)N2 (stereo not shown) [Compound 4m, 9-(8-Aza-bicyclo[3.2.1]oct-3-yl)-N,N-diethyl-9H-xanthene-3-carboxamidine] | 208 nM |  | 
CCN(CC)C(=O)c1ccc2c(c1)Oc1ccc(Br)cc1C2C1CC2CCC(C1)N2 (stereo not shown) [Compound 7f, 9-(8-Aza-bicyclo[3.2.1]oct-3-yl)-7-bromo-9H-xanthene-3-carboxylic acid diethylamide] | 174 nM | 1750 nM | 
c1cncc(-c2ccc3c(c2)Oc2ccccc2C3C2CC3CCC(C2)N3)c1 (stereo not shown) [Compound 3b, 3-(3-Pyridin-3-yl-9H-xanthen-9-yl)-8-aza-bicyclo[3.2.1]octane] | 3150 nM | 4440 nM | 
CCN(CC)C(=O)c1ccc2c(c1)Oc1c(Cl)cccc1C2C1CC2CCC(C1)N2 (stereo not shown) [Compound 6i, 9-(8-Aza-bicyclo[3.2.1]oct-3-yl)-5-chloro-9H-xanthene-3-carboxylic acid diethylamide] | 3350 nM | > 10000 nM | 
CC(=O)Nc1ccccc1-c1ccc2c(c1)Oc1c(O)cccc1C2C1CC2CCC(C1)N2Cc1ncc[nH]1 (stereo not shown) [Compound 9l, N-(2-{5-Hydroxy-9-[8-(1H-imidazol-2-ylmethyl)-8-aza-bicyclo[3.2.1]oct-3-yl]-9H-xanthen-3-yl}-phenyl)-acetamide] | 4.9 nM |  | 
Oc1cccc2c1Oc1cc(-c3cccnc3)ccc1C2C1CC2CCC(C1)N2Cc1cccs1 (stereo not shown) [Compound 10k, 6-Pyridin-3-yl-9-(8-thiophen-2-ylmethyl-8-aza-bicyclo[3.2.1]oct-3-yl)-9H-xanthen-4-ol] | 45.2 nM |  | 
CCN(CC)C(=O)c1ccc2c(c1)Oc1ccccc1C2C1CC2CCC(C1)N2CCc1ccccc1 (stereo not shown) [Compound 12a, 9-(8-Phenethyl-8-aza-bicyclo[3.2.1]oct-3-yl)-9H-xanthene-3-carboxylic acid diethylamide] | 200 nM | 667 nM | 
Oc1cccc2c1Oc1cc(-c3cccnc3)ccc1C2C1CC2CCC(C1)N2CCc1ccccc1 (stereo not shown) [Compound 13k, 9-(8-Phenethyl-8-aza-bicyclo[3.2.1]oct-3-yl)-6-pyridin-3-yl-9H-xanthen-4-ol] | 281 nM |  | 
CCN(CC)C(=O)c1ccc2c(c1)Oc1ccccc1C2C1CC2CCC(C1)N2 (stereo not shown) [Compound 9a, 9-(8-Aza-bicyclo[3.2.1]oct-3-yl)-9H-xanthene-3-carboxylic acid diethylamide] | 140 nM | 6450 nM | 
c1cncc(-c2ccc3c(c2)Oc2ccccc2C3C2CC3CCC(C2)N3Cc2cccs2)c1 (stereo not shown) [Compound 9b, 3-(3-Pyridin-3-yl-9H-xanthen-9-yl)-8-thiophen-2-ylmethyl-8-aza-bicyclo[3.2.1]octane] | 182 nM | 1610 nM | 
c1ccc(CN2C3CCC2CC(C2c4ccccc4Oc4cc(-c5nnn[nH]5)ccc42)C3)cc1 (stereo not shown) [Compound 9j, 8-Benzyl-3-[3-(1H-tetrazol-5-yl)-9H-xanthen-9-yl]-8-aza-bicyclo[3.2.1]octane] | 176 nM |  | 
CC(=O)Nc1ccccc1-c1ccc2c(c1)Oc1ccccc1C2C1CC2CCC(C1)N2Cc1cccs1 (stereo not shown) [Compound 14b, N-{2-[9-(8-Thiophen-2-ylmethyl-8-aza-bicyclo[3.2.1]oct-3-yl)-9H-xanthen-3-yl]-phenyl}-acetamide] | 78.1 nM | 2150 nM | 
CC(=O)Nc1ccccc1-c1ccc2c(c1)Oc1c(O)cccc1C2C1CC2CCC(C1)N2Cc1cccs1 (stereo not shown) [Compound 5l, N-{2-[5-Hydroxy-9-(8-thiophen-2-ylmethyl-8-aza-bicyclo[3.2.1]oct-3-yl)-9H-xanthen-3-yl]-phenyl}-acetamide] | 6.51 nM |  | 
Oc1cccc2c1Oc1cc(-c3cccnc3)ccc1C2C1CC2CCC(C1)N2 (stereo not shown) [Compound 8k, 9-(8-Aza-bicyclo[3.2.1]oct-3-yl)-6-pyridin-3-yl-9H-xanthen-4-ol] | 9.61 nM | 27.2 nM | 
c1ccc2c(c1)Oc1cc(-c3nnn[nH]3)ccc1C2C1CC2CCC(C1)N2Cc1ccoc1 (stereo not shown) [Compound 6j, 8-Furan-3-ylmethyl-3-[3-(1H-tetrazol-5-yl)-9H-xanthen-9-yl]-8-aza-bicyclo[3.2.1]octane] | 20.6 nM |  | 
c1ccc(CCN2C3CCC2CC(C2c4ccccc4Oc4cc(-c5ccncc5)ccc42)C3)cc1 (stereo not shown) [Compound 24b, 8-Phenethyl-3-(3-pyridin-4-yl-9H-xanthen-9-yl)-8-aza-bicyclo[3.2.1]octane] | 1590 nM | 196 nM | 
CCN(CC)C(=O)c1ccc2c(c1)Oc1ccccc1C2C1CC2CCC(C1)N2Cc1ccco1 (stereo not shown) [Compound 13a, 9-(8-Furan-2-ylmethyl-8-aza-bicyclo[3.2.1]oct-3-yl)-9H-xanthene-3-carboxylic acid diethylamide] | 42 nM | 3020 nM | 
CC(=O)Nc1ccccc1-c1ccc2c(c1)Oc1c(O)cccc1C2C1CC2CCC(C1)N2Cc1ccoc1 (stereo not shown) [Compound 4l, N-{2-[9-(8-Furan-3-ylmethyl-8-aza-bicyclo[3.2.1]oct-3-yl)-5-hydroxy-9H-xanthen-3-yl]-phenyl}-acetamide] | 22.2 nM |  | 
Oc1cccc2c1Oc1cc(-c3cccnc3)ccc1C2C1CC2CCC(C1)N2Cc1ccoc1 (stereo not shown) [Compound 9k, 9-(8-Furan-3-ylmethyl-8-aza-bicyclo[3.2.1]oct-3-yl)-6-pyridin-3-yl-9H-xanthen-4-ol] | 50.3 nM |  | 

Compound | Ki [1] | Ki [2] | Ki ([2]; rat forebrain membranes, [3H]DAMGO, read-out: mu (Ki))
c1ccc2c(c1)Oc1cc(-c3ccncc3)ccc1C2C1CC2CCC(C1)N2 (stereo not shown) [Compound 20b, 3-(3-Pyridin-4-yl-9H-xanthen-9-yl)-8-aza-bicyclo[3.2.1]octane] | 194 nM | 3490 nM | 
CC(=O)Nc1ccccc1-c1ccc2c(c1)Oc1ccccc1C2C1CC2CCC(C1)N2CCc1ccccc1 (stereo not shown) [Compound 17b, N-{2-[9-(8-Phenethyl-8-aza-bicyclo[3.2.1]oct-3-yl)-9H-xanthen-3-yl]-phenyl}-acetamide] | 64.8 nM |  | 116 nM
CCN(CC)C(=N)c1ccc2c(c1)Oc1ccccc1C2C1CC2CCC(C1)N2Cc1ccccn1 (stereo not shown) [Compound 7m, N,N-Diethyl-9-(8-pyridin-2-ylmethyl-8-aza-bicyclo[3.2.1]oct-3-yl)-9H-xanthene-3-carboxamidine] | 17.3 nM |  | 
CC(=O)Nc1ccccc1-c1ccc2c(c1)Oc1c(O)cccc1C2C1CC2CCC(C1)N2CCc1ccccc1 (stereo not shown) [Compound 8l, N-{2-[5-Hydroxy-9-(8-phenethyl-8-aza-bicyclo[3.2.1]oct-3-yl)-9H-xanthen-3-yl]-phenyl}-acetamide] | 26.6 nM |  | 
c1ccc(CN2C3CCC2CC(C2c4ccccc4Oc4cc(-c5nnn[nH]5)ccc42)C3)nc1 (stereo not shown) [Compound 8j, 8-Pyridin-2-ylmethyl-3-[3-(1H-tetrazol-5-yl)-9H-xanthen-9-yl]-8-aza-bicyclo[3.2.1]octane] | 178 nM |  | 
O=C(c1ccc2c(c1)Oc1ccccc1C2C1CC2CCC(C1)N2)N1CCC(O)C1 (stereo not shown) [Compound 3o, [9-(8-Aza-bicyclo[3.2.1]oct-3-yl)-9H-xanthen-3-yl]-(3-hydroxy-pyrrolidin-1-yl)-methanone] | 1210 nM |  | 
c1csc(CN2C3CCC2CC(C2c4ccccc4Oc4cc(-c5nnn[nH]5)ccc42)C3)c1 (stereo not shown) [Compound 7j, 3-[3-(1H-Tetrazol-5-yl)-9H-xanthen-9-yl]-8-thiophen-2-ylmethyl-8-aza-bicyclo[3.2.1]octane] | 13.8 nM |  | 
c1ccc(CCN2C3CCC2CC(C2c4ccccc4Oc4cc(-c5nnn[nH]5)ccc42)C3)cc1 (stereo not shown) [Compound 10j, 8-Phenethyl-3-[3-(1H-tetrazol-5-yl)-9H-xanthen-9-yl]-8-aza-bicyclo[3.2.1]octane] | 1150 nM |  | 
CCN(CC)C(=N)c1ccc2c(c1)Oc1ccccc1C2C1CC2CCC(C1)N2Cc1ccccc1 (stereo not shown) [Compound 8m, 9-(8-Benzyl-8-aza-bicyclo[3.2.1]oct-3-yl)-N,N-diethyl-9H-xanthene-3-carboxamidine] | 349 nM |  | 
Oc1cccc2c1Oc1cc(-c3cccnc3)ccc1C2C1CC2CCC(C1)N2Cc1ccccn1 (stereo not shown) [Compound 11k, 6-Pyridin-3-yl-9-(8-pyridin-2-ylmethyl-8-aza-bicyclo[3.2.1]oct-3-yl)-9H-xanthen-4-ol] | 3.05 nM |  | 
CCN(CC)C(=N)c1ccc2c(c1)Oc1ccccc1C2C1CC2CCC(C1)N2Cc1cccs1 (stereo not shown) [Compound 6m, N,N-Diethyl-9-(8-thiophen-2-ylmethyl-8-aza-bicyclo[3.2.1]oct-3-yl)-9H-xanthene-3-carboxamidine] | 162 nM |  | 
CCN(CC)C(=N)c1ccc2c(c1)Oc1ccccc1C2C1CC2CCC(C1)N2Cc1ccoc1 (stereo not shown) [Compound 5m, N,N-Diethyl-9-(8-furan-3-ylmethyl-8-aza-bicyclo[3.2.1]oct-3-yl)-9H-xanthene-3-carboxamidine] | 234 nM |  | 
c1cncc(-c2ccc3c(c2)Oc2ccccc2C3C2CC3CCC(C2)N3Cc2ncc[nH]2)c1 (stereo not shown) [Compound 26b, 8-(1H-Imidazol-2-ylmethyl)-3-(3-pyridin-3-yl-9H-xanthen-9-yl)-8-aza-bicyclo[3.2.1]octane] | 338 nM |  | 
Oc1cccc2c1Oc1cc(-c3cccnc3)ccc1C2C1CC2CCC(C1)N2Cc1ccccc1 (stereo not shown) [Compound 12k, 9-(8-Benzyl-8-aza-bicyclo[3.2.1]oct-3-yl)-6-pyridin-3-yl-9H-xanthen-4-ol] | 39.4 nM |  | 
CC(=O)Nc1ccccc1-c1ccc2c(c1)Oc1c(O)cccc1C2C1CC2CCC(C1)N2Cc1ccccc1 (stereo not shown) [Compound 7l, N-{2-[9-(8-Benzyl-8-aza-bicyclo[3.2.1]oct-3-yl)-5-hydroxy-9H-xanthen-3-yl]-phenyl}-acetamide] | 21.8 nM |  | 
O=c1[nH]c(-c2ccc3c(c2)Oc2ccccc2C3C2CCNCC2)no1 (stereo not shown) [Compound 2n, 3-(9-Piperidin-4-yl-9H-xanthen-3-yl)-4H-[1,2,4]oxadiazol-5-one] | 1300 nM |  | 
CCN(CC)C(=N)c1ccc2c(c1)Oc1ccccc1C2C1CC2CCC(C1)N2CCc1ccccc1 (stereo not shown) [Compound 9m, N,N-Diethyl-9-(8-phenethyl-8-aza-bicyclo[3.2.1]oct-3-yl)-9H-xanthene-3-carboxamidine] | 903 nM |  | 
CC(=O)Nc1ccccc1-c1ccc2c(c1)Oc1c(O)cccc1C2C1CC2CCC(C1)N2Cc1ccccn1 (stereo not shown) [Compound 6l, N-{2-[5-Hydroxy-9-(8-pyridin-2-ylmethyl-8-aza-bicyclo[3.2.1]oct-3-yl)-9H-xanthen-3-yl]-phenyl}-acetamide] | 49.9 nM |  | 
